ChEMBL document CHEMBL1201862, “PubChem BioAssay data set” (2004)
The source made the active and inactive calls.

Experiments:
[1] = molecular target: Fructose-bisphosphate aldolase (Mycobacterium tuberculosis, UniProt P9WQA3); test: Fluorescence-based biochemical high throughput dose response assay for inhibitors of the fructose-bisphosphate aldolase (FBA) of M. tuberculosis.; assay type: functional
[2] = human group III sPLA2 inhibitors, dose response, biochemical, QFRET, IC50 (AID 743457);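 further: green fluorescence rise as the enzyme cleaves BODIPY PC-A2 in liposomes; potency for inhibition of the enzyme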
[3] = NIH:OVCAR-3 ovarian cancer cell cytotoxicity, dose response, PAX8 inhibitor project, plate reader, dry powder samples (AID 743044); assay type: functional, cell-based
[4] = IGROV1 ovarian cancer cell cytotoxicity, dose response, PAX8 inhibitor project, plate reader, dry powder samples (AID 743043); assay type: functional, cell-based; conditions: IGROV-1
[5] = molecular target: Paired box protein Pax-8 (Homo sapiens, UniProt Q06710); test: inhibitors of PAX8-driven TPO luciferase reporter, dose response, RMG-I cells, cherry-pick (AID 687027); assay type: functional, cell-based;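 further: luciferase reporter driven by Pax8 target thyroperoxidase promoter measured by SteadyGlo luminescence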
[6] = cytotoxicity in OVCAR8 ovarian cancer cells, dose response, PAX8 project, cell-based, plate reader, dry powder samples (AID 743197); assay type: functional; conditions: OVCAR-8
[7] = cells; assay type: functional, cell-based
[8] = molecular target: T1, Trace amine-associated receptor 1 (Homo sapiens, UniProt Q96RJ0); test: Counterscreen for agonists of the human trace amine associated receptor 1 (hTAAR1): Fluorescence-based cell-based high throughput dose response assay to identify hTAAR1 agonist that also desensitize TAAR1 receptor response.; assay type: functional
T1 sequence (Q96RJ0 whole entry): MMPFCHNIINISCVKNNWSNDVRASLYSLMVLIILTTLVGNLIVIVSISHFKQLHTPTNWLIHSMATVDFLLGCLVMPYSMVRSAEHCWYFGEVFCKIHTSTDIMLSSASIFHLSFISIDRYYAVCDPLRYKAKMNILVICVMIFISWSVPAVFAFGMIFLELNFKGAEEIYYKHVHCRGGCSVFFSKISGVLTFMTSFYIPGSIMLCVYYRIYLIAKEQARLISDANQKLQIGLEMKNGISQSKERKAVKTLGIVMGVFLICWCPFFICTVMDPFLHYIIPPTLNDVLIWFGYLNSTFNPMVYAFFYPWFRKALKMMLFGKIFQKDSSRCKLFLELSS

[9] = cells; assay type: functional, cell-based; remark: listed apart in the source
[10] = molecular target: T1, Trace amine-associated receptor 1; test: Fluorescence-based cell-based high throughput dose response assay to identify agonists of the human trace amine associated receptor 1 (TAAR1).; assay type: functional
[11] = HepG2 cell cytotoxicity, dose response, cytotoxicity control, ATP luminescence, cherry-pick, activator set 2 (AID 1053143); assay type: functional, cell-based
[12] = molecular target: T2, Protein skinhead-1 (Caenorhabditis elegans, UniProt P34707); assay type: functional
T2 sequence (P34707 whole entry): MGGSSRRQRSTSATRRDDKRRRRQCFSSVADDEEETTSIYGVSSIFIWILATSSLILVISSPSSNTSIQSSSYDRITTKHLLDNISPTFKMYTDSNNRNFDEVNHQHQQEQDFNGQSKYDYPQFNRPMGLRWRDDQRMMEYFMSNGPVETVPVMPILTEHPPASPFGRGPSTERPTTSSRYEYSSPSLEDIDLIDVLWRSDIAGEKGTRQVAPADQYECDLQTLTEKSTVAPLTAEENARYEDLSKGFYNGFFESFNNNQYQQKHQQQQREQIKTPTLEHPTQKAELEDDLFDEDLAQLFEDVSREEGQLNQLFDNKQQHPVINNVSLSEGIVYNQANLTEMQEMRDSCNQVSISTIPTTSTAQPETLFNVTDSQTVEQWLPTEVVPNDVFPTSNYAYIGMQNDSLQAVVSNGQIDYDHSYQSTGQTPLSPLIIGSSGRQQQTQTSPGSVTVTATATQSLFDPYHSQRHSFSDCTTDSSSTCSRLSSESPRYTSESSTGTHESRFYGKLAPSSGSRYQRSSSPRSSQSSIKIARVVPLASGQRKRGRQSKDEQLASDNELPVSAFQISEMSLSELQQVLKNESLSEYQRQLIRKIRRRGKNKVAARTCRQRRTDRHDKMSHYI

[13] = molecular target: T3, Histone-lysine N-methyltransferase NSD2 (Homo sapiens, UniProt O96028); assay type: biochemical
T3 sequence (O96028 whole entry): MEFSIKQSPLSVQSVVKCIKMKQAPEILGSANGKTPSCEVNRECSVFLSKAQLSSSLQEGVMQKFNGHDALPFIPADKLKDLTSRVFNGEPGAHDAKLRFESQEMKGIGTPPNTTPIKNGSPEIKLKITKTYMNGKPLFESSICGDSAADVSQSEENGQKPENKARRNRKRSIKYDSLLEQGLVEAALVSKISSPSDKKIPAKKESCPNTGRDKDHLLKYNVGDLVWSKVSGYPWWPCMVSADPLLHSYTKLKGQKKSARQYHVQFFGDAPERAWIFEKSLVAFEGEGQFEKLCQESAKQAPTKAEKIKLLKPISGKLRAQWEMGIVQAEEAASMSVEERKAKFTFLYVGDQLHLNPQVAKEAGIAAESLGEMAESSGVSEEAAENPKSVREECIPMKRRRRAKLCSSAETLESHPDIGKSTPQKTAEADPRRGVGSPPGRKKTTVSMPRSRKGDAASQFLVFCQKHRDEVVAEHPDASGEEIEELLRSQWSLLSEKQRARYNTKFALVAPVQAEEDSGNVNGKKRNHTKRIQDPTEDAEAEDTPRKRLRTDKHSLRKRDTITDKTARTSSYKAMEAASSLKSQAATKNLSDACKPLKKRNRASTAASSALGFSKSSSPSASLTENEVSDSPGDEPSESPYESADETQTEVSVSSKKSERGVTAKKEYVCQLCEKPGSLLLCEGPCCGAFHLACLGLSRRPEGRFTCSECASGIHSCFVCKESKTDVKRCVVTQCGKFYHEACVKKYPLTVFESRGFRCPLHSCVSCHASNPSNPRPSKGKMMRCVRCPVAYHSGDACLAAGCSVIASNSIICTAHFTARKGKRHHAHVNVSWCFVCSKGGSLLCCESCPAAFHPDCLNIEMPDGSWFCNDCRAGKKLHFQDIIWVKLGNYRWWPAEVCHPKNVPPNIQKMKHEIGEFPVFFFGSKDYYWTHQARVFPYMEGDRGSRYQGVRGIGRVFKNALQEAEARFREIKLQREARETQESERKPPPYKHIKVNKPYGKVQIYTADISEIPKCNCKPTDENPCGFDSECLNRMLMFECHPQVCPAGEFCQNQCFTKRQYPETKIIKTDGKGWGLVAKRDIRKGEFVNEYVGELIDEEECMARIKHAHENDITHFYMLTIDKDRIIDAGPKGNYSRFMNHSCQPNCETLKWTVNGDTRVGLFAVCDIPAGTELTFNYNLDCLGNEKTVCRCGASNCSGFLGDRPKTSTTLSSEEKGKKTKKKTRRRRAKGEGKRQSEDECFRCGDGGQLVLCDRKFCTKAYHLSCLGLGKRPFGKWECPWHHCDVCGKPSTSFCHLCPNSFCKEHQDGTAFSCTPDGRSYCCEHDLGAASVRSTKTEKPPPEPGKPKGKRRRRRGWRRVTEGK

[14] = molecular target: DNA repair protein RAD52 homolog (Homo sapiens, UniProt P43351); assay type: functional, biochemical
[15] = test system: Vero; test: cells; assay type: functional, cell-based; conditions: Chlorocebus sabaeus
[16] = molecular target: T4, Heat shock factor protein 1 (Mus musculus, UniProt P38532); test: HSF1 potentiators in luciferase reporter cells, confirmation, cell-based, NIH3T3, luminescence, dose retest (AID 435004); assay type: functional;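 further: stress induced by proteasome inhibitor MG132 added 30 min after compound; luciferase reporter driven by HSF1 response element in NIH3T3 cells; actives raise luminescence as potentiators of the MG132 stress response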
T4 sequence (P38532 whole entry): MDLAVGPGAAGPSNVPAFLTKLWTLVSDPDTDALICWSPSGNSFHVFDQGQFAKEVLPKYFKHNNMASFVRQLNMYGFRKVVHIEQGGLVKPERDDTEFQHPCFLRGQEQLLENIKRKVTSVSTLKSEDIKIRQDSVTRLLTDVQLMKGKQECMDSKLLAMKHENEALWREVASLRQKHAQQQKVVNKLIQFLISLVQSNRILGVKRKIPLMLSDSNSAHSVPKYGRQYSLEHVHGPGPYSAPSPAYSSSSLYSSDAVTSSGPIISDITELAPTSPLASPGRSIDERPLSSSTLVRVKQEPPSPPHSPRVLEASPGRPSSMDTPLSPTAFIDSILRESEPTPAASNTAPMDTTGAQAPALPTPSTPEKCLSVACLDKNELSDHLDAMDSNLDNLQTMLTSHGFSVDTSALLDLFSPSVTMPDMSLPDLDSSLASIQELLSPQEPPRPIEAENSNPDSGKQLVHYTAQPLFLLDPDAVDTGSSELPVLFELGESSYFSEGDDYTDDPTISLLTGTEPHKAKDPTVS

[17] = test system: Vero; test: cells; assay type: functional; conditions: Chlorocebus sabaeus
[18] = Late stage assay provider results from the probe development effort to identify selective inhibitors of heat shock protein 90 (HSP90): Absorbance-based cell proliferation assay in MCF7 cells.; assay type: functional
[19] = Late stage assay provider results from the probe development effort to identify selective inhibitors of heat shock protein 90 (HSP90): Absorbance-based cell proliferation assay in SKBR3 cells.; assay type: functional; conditions: SK-BR-3
[20] = molecular target: fMet-Leu-Phe receptor (Homo sapiens, UniProt P21462); test: FPR ligands, dose response (AID 519); assay type: functional
[21] = molecular target: Albumin (Bos taurus, UniProt P02769); test: Counterscreen for inhibitors of T-cell receptor (TCR)-CD3 interaction: Fluorescence-based biochemical high throughput dose response assay to identify inhibitors of T-cell receptor (TCR)-CD3 interaction using a TAMRA-labeled BSA probe.; assay type: functional
[22] = HepG2 cell cytotoxicity, dose response, cytotoxicity control for non-replicating M. tuberculosis project (AID 489018); assay type: functional; conditions: Mycobacterium tuberculosis
[23] = inhibitors of HIV Env-driven cell fusion, dose response, cherry-pick (AID 652057); assay type: functional, cell-based
[24] = ZM109 Env clade C HIV-1 fusion inhibitors, dose response, HeLa effector, CEM target cells, luciferase, cherry-pick (AID 652058); assay type: functional, cell-based
[25] = Vero E6 cell cytotoxicity, dose response, cytotoxicity control for non-replicating M. tuberculosis project, secondary assay (AID 492998); assay type: functional, VeroE6; conditions: Vero C1008
[26] = off-target signal loss in HeLa-CEM21 co-culture – HeLa F-luc CTL cells, cherry-picked, counter-screen for HIV-1 Env fusion inhibitor project, dose response (AID 652040); assay type: functional, cell-based;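 further: potency for signal decrease marking cytotoxic or nonspecific inhibition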
[27] = THP-1 cell cytotoxicity, dose response, cytotoxicity control for non-replicating M. tuberculosis project (AID 489025); assay type: functional
[28] = inhibitors of clade B AD8 Env fusion, dose response, cell-based, cherry-pick (AID 652062); assay type: functional;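 further: luciferase signal from cell-cell fusion driven by HIV-1 clade B AD8 Env; potency is for inhibitors of fusion seen as a drop in luminescence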
[29] = molecular target: Large T antigen (Simian virus 40, UniProt P03070); assay type: functional, Betapolyomavirus macacae;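 further: Confirmatory-stage PubChem screen for compounds that inhibit SV40 T antigen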
Large T antigen, sequence (P03070 whole entry): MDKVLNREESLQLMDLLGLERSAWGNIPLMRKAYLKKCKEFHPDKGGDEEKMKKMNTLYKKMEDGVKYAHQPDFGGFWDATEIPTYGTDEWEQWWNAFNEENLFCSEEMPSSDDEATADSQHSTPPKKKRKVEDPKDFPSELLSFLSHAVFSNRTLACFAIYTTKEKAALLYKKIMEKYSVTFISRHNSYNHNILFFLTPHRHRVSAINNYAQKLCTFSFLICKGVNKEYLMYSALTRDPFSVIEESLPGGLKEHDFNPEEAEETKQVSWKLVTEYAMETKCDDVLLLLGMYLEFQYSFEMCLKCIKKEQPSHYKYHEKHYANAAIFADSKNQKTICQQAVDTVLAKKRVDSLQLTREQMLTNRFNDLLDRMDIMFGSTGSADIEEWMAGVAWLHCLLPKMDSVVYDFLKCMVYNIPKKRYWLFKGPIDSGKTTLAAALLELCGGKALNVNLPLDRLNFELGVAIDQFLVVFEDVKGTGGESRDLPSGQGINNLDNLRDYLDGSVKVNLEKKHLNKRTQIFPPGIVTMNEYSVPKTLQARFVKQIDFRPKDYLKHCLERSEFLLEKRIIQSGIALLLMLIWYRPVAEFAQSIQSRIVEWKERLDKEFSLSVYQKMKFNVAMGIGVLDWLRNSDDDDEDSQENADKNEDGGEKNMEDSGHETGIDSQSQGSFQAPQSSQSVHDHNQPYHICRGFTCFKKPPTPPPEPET

Albumin, sequence (P02769 whole entry): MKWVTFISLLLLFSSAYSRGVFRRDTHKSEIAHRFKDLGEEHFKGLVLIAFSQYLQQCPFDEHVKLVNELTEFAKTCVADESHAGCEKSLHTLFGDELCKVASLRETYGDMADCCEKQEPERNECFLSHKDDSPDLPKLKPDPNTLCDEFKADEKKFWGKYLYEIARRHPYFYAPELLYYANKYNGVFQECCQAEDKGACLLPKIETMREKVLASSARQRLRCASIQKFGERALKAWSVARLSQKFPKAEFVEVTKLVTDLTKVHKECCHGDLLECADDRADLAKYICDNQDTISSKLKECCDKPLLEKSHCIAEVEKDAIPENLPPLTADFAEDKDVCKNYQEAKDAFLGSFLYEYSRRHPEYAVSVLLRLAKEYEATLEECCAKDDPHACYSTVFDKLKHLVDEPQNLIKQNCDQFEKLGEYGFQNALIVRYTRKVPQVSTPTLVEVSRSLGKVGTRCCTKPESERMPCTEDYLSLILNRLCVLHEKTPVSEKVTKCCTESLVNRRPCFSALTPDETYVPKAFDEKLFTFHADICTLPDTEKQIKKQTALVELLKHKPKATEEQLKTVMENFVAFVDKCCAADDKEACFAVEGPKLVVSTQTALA
fMet-Leu-Phe receptor, sequence (P21462 whole entry): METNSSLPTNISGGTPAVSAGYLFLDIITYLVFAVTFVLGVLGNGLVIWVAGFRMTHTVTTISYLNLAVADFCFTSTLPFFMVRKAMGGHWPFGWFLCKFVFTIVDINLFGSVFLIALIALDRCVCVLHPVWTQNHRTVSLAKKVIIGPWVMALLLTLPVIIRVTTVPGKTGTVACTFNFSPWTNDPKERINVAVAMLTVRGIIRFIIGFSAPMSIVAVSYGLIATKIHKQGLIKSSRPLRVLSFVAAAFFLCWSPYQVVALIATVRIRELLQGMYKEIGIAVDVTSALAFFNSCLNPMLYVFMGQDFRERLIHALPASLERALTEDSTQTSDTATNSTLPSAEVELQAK
DNA repair protein RAD52 homolog, sequence (P43351 whole entry): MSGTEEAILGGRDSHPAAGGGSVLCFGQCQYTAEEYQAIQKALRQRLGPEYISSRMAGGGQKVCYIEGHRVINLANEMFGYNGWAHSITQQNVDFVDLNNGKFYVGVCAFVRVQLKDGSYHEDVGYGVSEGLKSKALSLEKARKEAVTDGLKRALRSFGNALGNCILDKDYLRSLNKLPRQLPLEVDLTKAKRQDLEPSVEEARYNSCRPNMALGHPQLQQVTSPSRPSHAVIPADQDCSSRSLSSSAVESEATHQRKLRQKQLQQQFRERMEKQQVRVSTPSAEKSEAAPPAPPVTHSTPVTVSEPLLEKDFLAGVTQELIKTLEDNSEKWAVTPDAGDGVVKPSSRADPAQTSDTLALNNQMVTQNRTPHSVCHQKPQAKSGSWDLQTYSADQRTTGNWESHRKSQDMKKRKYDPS
Fructose-bisphosphate aldolase, sequence (P9WQA3 whole entry): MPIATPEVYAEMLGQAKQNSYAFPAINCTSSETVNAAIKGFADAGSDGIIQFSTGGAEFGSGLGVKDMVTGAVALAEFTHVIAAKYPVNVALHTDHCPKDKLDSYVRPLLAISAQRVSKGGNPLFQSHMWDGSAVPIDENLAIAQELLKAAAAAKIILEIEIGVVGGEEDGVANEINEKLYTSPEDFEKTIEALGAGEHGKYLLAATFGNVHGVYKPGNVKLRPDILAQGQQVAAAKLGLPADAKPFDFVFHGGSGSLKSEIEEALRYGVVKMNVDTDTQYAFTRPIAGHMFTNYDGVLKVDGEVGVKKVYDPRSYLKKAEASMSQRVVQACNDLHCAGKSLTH
Paired box protein Pax-8, sequence (Q06710 whole entry): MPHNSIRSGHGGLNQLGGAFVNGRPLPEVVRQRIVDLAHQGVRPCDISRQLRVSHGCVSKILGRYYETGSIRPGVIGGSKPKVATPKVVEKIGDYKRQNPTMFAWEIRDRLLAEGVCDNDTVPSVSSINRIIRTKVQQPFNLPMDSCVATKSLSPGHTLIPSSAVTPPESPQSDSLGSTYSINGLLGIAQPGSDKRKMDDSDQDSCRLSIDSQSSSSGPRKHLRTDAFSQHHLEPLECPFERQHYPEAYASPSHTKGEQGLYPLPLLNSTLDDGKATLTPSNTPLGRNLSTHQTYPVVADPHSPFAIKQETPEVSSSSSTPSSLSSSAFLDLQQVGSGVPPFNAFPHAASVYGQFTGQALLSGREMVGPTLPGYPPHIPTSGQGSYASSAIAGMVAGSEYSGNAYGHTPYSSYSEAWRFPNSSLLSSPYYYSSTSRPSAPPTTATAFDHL

CCc1c(C)nc2c(-c3ccccc3)cnn2c1O
IC50 [1]: 3.39 µM (active)
IC50 [2]: > 122 µM (inactive)

COc1ccccc1S(=O)(=O)N(C)C[C@H]1Oc2cc(C#CCC3CCCC3)ccc2S(=O)(=O)N([C@H](C)CO)C[C@H]1C
AC50 [3]: 35.5 µM (active)
AC50 [4]: 55.4 µM (active)
AC50 [5]: 4.83 µM (active)
AC50 [6]: 64 µM (active)

Cc1cc(C(=O)CN2C(=O)C(=O)N(C3CCCC3)C2=O)c(C)n1CCc1ccc(F)cc1
EC50 [7]: > 29.9 µM (inactive)
IC50 [8]: 5.57 µM (active)
IC50 [9]: > 29.9 µM (inactive)
EC50 [10]: 2.96 µM (active)

COc1ccc(Nc2ccnc(Nc3ccc(OC)cc3)n2)cc1
AC50 [11]: 26 µM (active)

Cc1c(C)n(Cc2ccccc2)c2ccc(C(=O)OCCN(C)C)cc12
IC50 [12]: 58.2 µM (inactive)
AC50 [13]: > 20 µM (inactive)
AC50 [14]: 14 µM (active)

O=C(Nc1ccc(Cl)cn1)c1ccc([N+](=O)[O-])o1
IC50 [15]: > 25 µM (active)
EC50 [16]: 20.8 µM (active)
CC50 [17]: 16.9 µM (active)
AC50 [11]: 26 µM (active)

COC(=O)c1cccc(COc2ccc3cc(C#N)c(=O)oc3c2)c1
IC50 [18]: > 100 µM (inactive)
IC50 [19]: > 100 µM (inactive)

CCc1cc2c(=O)c(-c3nc4ccccc4n3C)c(COCC(=O)O)oc2cc1OC(=O)C(C)(C)C
Ki [20]: > 66.7 µM (inactive)

CC(C)[C@H](NC(=O)C1CC1)C(=O)N1CCC[C@H]1C(=O)NCCc1ccccc1Cl
EC50 [7]: > 29.9 µM (inactive)
IC50 [8]: 3.18 µM (active)
IC50 [9]: > 29.9 µM (inactive)
EC50 [10]: 3.03 µM (active)

N#Cc1cc2ccc(OCc3cccc(C(=O)O)c3)cc2oc1=O
IC50 [18]: > 100 µM (inactive)
IC50 [19]: > 100 µM (inactive)

CC1=NN(C(=O)c2ccccc2)C(O)(c2ccc(Br)cc2)C1 (centres undefined)
IC50 [21]: > 94.2 µM (inactive)
CC50 [22]: > 20 µM (active)
AC50 [23]: 9.38 µM (active)
AC50 [24]: 8 µM (active)
CC50 [25]: > 20 µM (active)
AC50 [26]: 21.6 µM (active)
CC50 [27]: 22.8 µM (active)
AC50 [28]: 42.2 µM (active)

CNc1nn(-c2cccc(Cl)c2)nc1N
Ki [20]: > 66.7 µM (inactive)
IC50 [2]: > 122 µM (inactive)
IC50 [29]: 29.9 µM (active)

CCOc1ccc(C(=O)CCC(=O)NNC(=O)c2ccccc2O)cc1
IC50 [21]: > 94.1 µM (inactive)
